# According to PubChem BioAssay AID1343 (Sanford-Burnham Center for Chemical Genomics, 2008):
# Calls of active or inactive are those of the source.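 The calls were made as follows: active = survival of 63% or more, 10 points above the level seen with tunicamycin given alone; inactive = the rest.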
# Test system: CSM14.1 tunicamycin-induced death, ATP luminescence, 48 h
# Test: rescue from tunicamycin-induced cell death, late-stage follow-up, mechanism study for ER stress death inhibitor project, undifferentiated CSM14.1, ATP content (AID 1343)
# Conditions: at 25 µM; hits give high values
row,Structure (SMILES),survival
1,CCCOc1ccc(C2Nc3ccccc3NC3=C2C(=O)CC(c2ccc(OC)c(OC)c2)C3)cc1 (stereo unspecified),74%
2,COc1ccc(C2CC(=O)C3=C(C2)Nc2ccccc2NC3c2cccc(Br)c2)cc1OC (stereo unspecified),64%
3,CC1(C)CC(=O)C2=C(C1)Nc1ccccc1NC2c1ccc(-c2ccccc2)cc1 (stereo unspecified),77%
4,CSc1ccc(C2Nc3ccccc3NC3=C2C(=O)CC(c2ccccc2)C3)cc1 (stereo unspecified),59% (inactive)
5,CCOc1cc(C2Nc3ccccc3NC3=C2C(=O)CC(c2ccc(OC)cc2)C3)cc(Cl)c1O (stereo unspecified),46% (inactive)
6,COc1ccc(C2CC(=O)C3=C(C2)Nc2ccccc2NC3c2cccc(C(F)(F)F)c2)cc1OC (stereo unspecified),65%
7,COc1ccc(C2CC(=O)C3=C(C2)Nc2ccccc2NC3c2cc(C)ccc2C)cc1 (stereo unspecified),57% (inactive)
8,COc1ccc(C2CC(=O)C3=C(C2)Nc2ccccc2NC3c2ccccc2C(F)(F)F)cc1OC (stereo unspecified),60% (inactive)
9,COc1ccc(C2CC(=O)C3=C(C2)Nc2ccccc2NC3c2cccc(Oc3ccccc3)c2)cc1OC (stereo unspecified),63%
10,CCOc1cccc(C2Nc3ccccc3NC3=C2C(=O)CC(c2ccc(OC)cc2)C3)c1 (stereo unspecified),55% (inactive)
11,O=C1CC(c2ccccc2)CC2=C1C(c1c(F)cccc1Cl)Nc1ccccc1N2 (stereo unspecified),52% (inactive)
